{"source": "patent US5663154A", "about": "“2',3'-dideoxy-3'-fluoro-purine ribonucleosides” (Glaxo Wellcome Inc., priority 1992, dated 1997)", "key": {"[1]": {"tested_on": "Hepatitis B Virus (HBV)", "experiment": "Antiviral activity against HBV: extracellular HBV DNA from HepG2 2.2.15 cells", "assay_type": "cell-based, human HBV", "details": "culture medium, treated at 25 μm (so in the source)", "experimental": "Anti-HBV activity of compounds of formula (I) was determined using a method described by Korba B. E. and Milman G., Antiviral Research, 1991, Vol.15, pp217-228.\nThe assay utilises the human HBV producer cell line of HepG2, 2.2.15, described and characterized by Sells et al., PNAS 84, 1005 (1987) and J. Virol. […] This cell line was utilized in vitro to identify compounds with anti-HBV activity.\nSupernatant media containing extracellular virion DNA (Dane particles) were harvested on days 0, 4 and 9, treated with proteinase K (1 mg/mL) and sodium dodecyl sulfate (1%), and incubated at 50° C. for one hour. DNA was extracted with equal volumes of phenol followed by chloroform and then precipitated using ammonium acetate and propanol. […] After precipitation by ammonium acetate and propanol, the intracellular DNA precipitate was dissolved, cut by restriction endonuclease, Hind III, applied co agarose gel and then treated as described by Southern to determine the quantity of replicative intermediate forms. The antiviral effect of the drug was determined by measuring at least a 100-fold reduction in the amount of Dane particles extruded into the culture medium and a similar decrease in the intracellular replicative intermediates."}, "[2]": {"tested_on": "HIV", "experiment": "Antiviral activity against HIV: reversal of cytopathic effect in MT4 cells, propidium iodide dye uptake", "assay_type": "cell-based", "details": "Human immunodeficiency virus 1, 120 h, HIV-1 (strain 3B) or HIV-2 (Zagury strain), not stated which, 5 days", "experimental": "Anti-HIV activity of compounds of formula (I) was determined using the method of Averett D. R., 1989, J. Virol. Methods, 23, pp263-276, by measuring the ability of the compound to reverse the cytopathic effect of HIV infection. This was determined by a quantitative assessment of cell growth monitored at the fifth day post infection by a propidium iodide dye uptake test. MT4 cells were incubated with 100XTCID50 of HIV-1 (strain 3B) or HIV-2 (Zagury strain) for one hour prior to addition of the compound in six different concentrations varying from 2 to 200 μM. The cells were allowed to incubate for five days at 37° C. On day 5, NP-40, a detergent, was added to a final concentration of 0.5% immediately prior to analysis. Cell number was determined using a method which measures the fluorescence of a dye (propidium iodide) which binds to DNA. Since the amount of DNA is directly proportional to cell number, this fluorescence assay is an indication of cell growth. While uninfected cells double in cell number several times during the five days duration of the assay, HIV-infected cells grow very little, if at all. A compound which reverses the cytopathic effect of HIV would allow for rapid cell growth, approaching that of the mock-infected cells. […]"}}, "note": "“And” between values parts separate entries of the source, which are not always exact repeats. Identical values can stand only once."}
{"smiles": "CN(C)c1nc(N)nc2c1ncn2[C@H]1C[C@H](F)[C@@H](CO)O1", "note": "[Example 13, 2-Amino-9-(2,3-dideoxy-3-fluoro-β-D-erythro-pentofuranosyl)-6-(dimethylamino)-9H-purine]", "values": [{"measurement": "Extracellular HBV DNA, Day 0", "setting": "[1]; Day 0", "value": "60 pg/mL and 99 pg/mL and 77 pg/mL and 67 pg/mL"}, {"measurement": "Extracellular HBV DNA, Day 4", "setting": "[1]; Day 4", "value": "57 pg/mL and 33 pg/mL and 53 pg/mL and 51 pg/mL"}, {"measurement": "IC50", "setting": "[2]", "value": 8, "unit": "µM"}]}
